Like-named read-outs stand apart in the source and are kept apart here.
Columns and labels:
[1] = test system: Haemonchus contortus L3; assay: Haemonchus contortus, Larvae Stage 3 (HcL3) In Vitro Assay; conditions: Haemonchus contortus
[2] = test system: Dirofilaria immitis microfilariae; assay: Dirofilaria immitis, Microfilariae (DiMF) In Vitro Assay; conditions: Dirofilaria immitis
[3] = biological target: T1, bovine vesicular acetylcholine transporter (VAChT) (Bos taurus, UniProt E1BK36); assay: Radioligand Binding Assay; conditions: Bovine binding Ki, CHO-K1 membranes with recombinant bovine VAChT, [3H]Compound X6 0.3 nM
T1 sequence (E1BK36 1-524): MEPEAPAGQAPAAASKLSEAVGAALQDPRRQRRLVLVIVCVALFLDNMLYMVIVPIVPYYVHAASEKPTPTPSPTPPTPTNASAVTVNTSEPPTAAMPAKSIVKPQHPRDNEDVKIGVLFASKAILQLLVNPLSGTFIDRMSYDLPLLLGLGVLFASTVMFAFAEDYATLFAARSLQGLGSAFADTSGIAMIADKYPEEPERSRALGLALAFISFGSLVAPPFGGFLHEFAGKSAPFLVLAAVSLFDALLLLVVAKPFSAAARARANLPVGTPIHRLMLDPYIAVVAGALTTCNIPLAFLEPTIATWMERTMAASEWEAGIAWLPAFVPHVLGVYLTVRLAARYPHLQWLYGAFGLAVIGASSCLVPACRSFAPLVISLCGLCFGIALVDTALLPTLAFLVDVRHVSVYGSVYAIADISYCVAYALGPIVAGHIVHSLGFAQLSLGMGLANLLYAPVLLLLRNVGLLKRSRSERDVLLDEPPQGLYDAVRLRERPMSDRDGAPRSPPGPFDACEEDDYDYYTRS

[4] = 96 h, read-out: HcL3 MEC, Minimal Effective Concentration whereby worm motility is inhibited by approximately 70%, 37° C., tested 0.001-100 μM
[5] = 72 h, read-out: Di MF, MEC, decrease in microfilariae motility by visual assessment, curve starting at 100 μM
[6] = 96 hours, 37° C., read-out: HcL3 MEC

SMILES	minimal effective concentration [1, 4] [µM]	minimal effective concentration [2, 5] [µM]	Ki [3] [nM]	minimal effective concentration [1, 6] [µM]	minimal effective concentration ([2]; 72 hours, read-out: Di MF) [µM]
N#Cc1ccc(-c2ccc3c(c2)C2(CCN(C/C=C/c4ccc(Cl)c(Cl)c4)CC2)CN3C(=O)NCc2ccnc(F)c2)cn1 [Example 116, 5-(6-cyano-3-pyridyl)-1′-[(E)-3-(3,4-dichlorophenyl)allyl]-N-[(2-fluoro-4-pyridyl)methyl]spiro[indoline-3,4′-piperidine]-1-carboxamide]	5	4	58.5		
O=C(NCc1cnc(Cl)s1)N1CC2(CCN(C/C=C/c3ccc(Cl)cc3)CC2)c2cc3c(cc21)COC3 [Example 3, (E)-1′-(3-(4-chlorophenyl)allyl)-N-((2-chlorothiazol-5-yl)methyl)-5,7-dihydrospiro[furo[3,4-f]indole-3,4′-piperidine]-1(2H)-carboxamide]			31.2	3.3	5.7
O=C(NCc1ccnc(C(F)(F)F)c1)N1CC2(CCN(C/C=C/c3ccc(F)cc3)CC2)c2cc(OC(F)(F)F)ccc21 [Example 175, (E)-1′-(3-(4-fluorophenyl)allyl)-5-(trifluoromethoxy)-N-((2-(trifluoromethyl)pyridin-4-yl)methyl)spiro[indoline-3,4′-piperidine]-1-carboxamide]	24.5	3.3	452		
O=C(NCc1ccnc(Cl)c1)N1CC2(CCN(C/C=C/c3ccc(Cl)cc3)CC2)c2cc(S(F)(F)(F)(F)F)ccc21 [Example 169, (E)-1′-(3-(4-chlorophenyl)allyl)-N-((2-chloropyridin-4-yl)methyl)-5-(pentafluorosulfide)spiro[indoline-3,4′-piperidine]-1-carboxamide]	47.8	3.3	467		
O=C(NCc1ccnc(Cl)c1)N1CC2(CCN(C/C=C/c3ccc(Cl)cc3)CC2)c2cc(C(F)(F)F)ccc21 [Example 160, (E)-1′-(3-(4-chlorophenyl)allyl)-N-((2-chloropyridin-4-yl)methyl)-5-(trifluoromethyl)spiro[indoline-3,4′-piperidine]-1-carboxamide]			226	10	10
O=C(NCc1ccnc(Cl)c1)N1CC2(CCN(C/C=C/c3ccc(F)cc3)CC2)c2cc(C(F)(F)F)ccc21 [Example 154, (E)-N-((2-chloropyridin-4-yl)methyl)-1′-(3-(4-fluorophenyl)allyl)-5-(trifluoromethyl)spiro[indoline-3,4′-piperidine]-1-carboxamide]			283	6.6	2.8
O=C(NCc1ccnc(Cl)c1)N1CC2(CCN(C/C=C/c3ccc(Cl)cc3)CC2)c2cc(OC(F)(F)F)c(Cl)cc21 [Example 150, (E)-6-chloro-1′-(3-(4-chlorophenyl)allyl)-N-((2-chloropyridin-4-yl)methyl)-5-(trifluoromethoxy)spiro[indoline-3,4′-piperidine]-1-carboxamide]	5.7	18.2	297		
O=C(NCc1ccnc(F)c1)N1CC2(CCN(C/C=C/c3ccc(Cl)cc3)CC2)c2c(Cl)cc(Cl)cc21 [Example 60, (E)-4,6-dichloro-1′-(3-(4-chlorophenyl)allyl)-N-((2-fluoropyridin-4-yl)methyl)spiro[indoline-3,4′-piperidine]-1-carboxamide]	100	10	986		
N#Cc1ccc(/C=C/CN2CCC3(CC2)CN(C(=O)NCc2ccnc(Cl)c2)c2ccc([N+](=O)[O-])cc23)cc1 [Example 97, (E)-N-((2-chloropyridin-4-yl)methyl)-1′-(3-(4-cyanophenyl)allyl)-5-nitrospiro[indoline-3,4′-piperidine]-1-carboxamide]	33	5.7	63.7		
O=C(NCc1ccnc(F)c1)N1CC2(CCN(C/C=C/c3ccc(Cl)cc3)CC2)c2cc(Cl)c(F)cc21 [Example 71, (E)-5-chloro-1′-(3-(4-chlorophenyl)allyl)-6-fluoro-N-((2-fluoropyridin-4-yl)methyl)spiro[indoline-3,4′-piperidine]-1-carboxamide]	3.3	3.3	31.4		
O=C(NCC1CCCO1)N1CC2(CCN(C/C=C/c3ccc(Cl)c(Cl)c3)CC2)c2c1ccc1scnc21 (racemic) [Example 34, (+/−)(E)-1-(3-(3,4-dichlorophenyl)allyl)-N-((tetrahydrofuran-2-yl)methyl)spiro[piperidine-4,8′-thiazolo[4,5-e]indole]-6′(7′H)-carboxamide]	100	3.3	467		
O=C(NCc1ccnc(Cl)c1)N1CC2(CCN(C/C=C/c3ccc(Cl)cc3)CC2)c2cc(-n3ccccc3=O)ccc21 [Example 74, (E)-1′-(3-(4-chlorophenyl)allyl)-N-((2-chloropyridin-4-yl)methyl)-5-(2-oxopyridin-1(2H)-yl)spiro[indoline-3,4′-piperidine]-1-carboxamide]	100	2.4	11600		
O=C(NCc1ccnc(Cl)c1)N1CC2(CCN(C/C=C/c3ccc(Cl)cc3)CC2)c2c1ccc(OC(F)(F)F)c2Cl [Example 159, (E)-4-chloro-1′-(3-(4-chlorophenyl)allyl)-N-((2-chloropyridin-4-yl)methyl)-5-(trifluoromethoxy)spiro[indoline-3,4′-piperidine]-1-carboxamide]			565	10	24
O=C(NCc1ccnc(F)c1)N1CC2(CCN(C/C=C/c3ccc(Cl)c(Cl)c3)CC2)c2cc(-c3cccnc3)ccc21 [Example 110, 1′-[(E)-3-(3,4-dichlorophenyl)allyl]-N-[(2-fluoro-4-pyridyl)methyl]-5-(3-pyridyl)spiro[indoline-3,4′-piperidine]-1-carboxamide]	69.1	3.3	7820		
O=C(NCc1ccnc(Cl)c1)N1CC2(CCN(C/C=C/c3ccc(Cl)cc3)CC2)c2cc(N3CCCC3)ccc21 [Example 76, (E)-1′-(3-(4-chlorophenyl)allyl)-N-((2-chloropyridin-4-yl)methyl)-5-(pyrrolidin-1-yl)spiro[indoline-3,4′-piperidine]-1-carboxamide]	100	1.8	1420		
O=C(NCc1ccnc(Cl)c1)N1CC2(CCN(C/C=C/c3ccc(C(F)(F)F)cn3)CC2)c2c1ccc1scnc21 [Example 41, (E)-N-((2-chloropyridin-4-yl)methyl)-1-(3-(5-(trifluoromethyl)pyridin-2-yl)allyl)spiro[piperidine-4,8′-thiazolo[4,5-e]indole]-6′(7′H)-carboxamide]	> 100	33	428		
O=C(NCC1CCOC1)N1CC2(CCN(C/C=C/c3ccc(Cl)c(Cl)c3)CC2)c2c1ccc1scnc21 (racemic) [Example 35, (+/−)(E)-1-(3-(3,4-dichlorophenyl)allyl)-N-((tetrahydrofuran-3-yl)methyl)spiro[piperidine-4,8′-thiazolo[4,5-e]indole]-6′(7′H)-carboxamide]	100	3.3	731		
O=C(NCc1ccc(F)cc1)N1CC2(CCN(C/C=C/c3ccc(Cl)c(Cl)c3)CC2)c2c1ccc1scnc21 [Example 16, (E)-1-(3-(3,4-dichlorophenyl)allyl)-N-(4-fluorobenzyl)spiro[piperidine-4,8′-thiazolo[4,5-e]indole]-6′(7′H)-carboxamide]	100	3.3	7340		
Cn1ncc2c3c(ccc21)N(C(=O)NCc1ccnc(Cl)c1)CC31CCN(C/C=C/c2ccc(Cl)cc2)CC1 [Example 51, (E)-1-(3-(4-chlorophenyl)allyl)-N-((2-chloropyridin-4-yl)methyl)-3′-methyl-3′H-spiro[piperidine-4,8′-pyrrolo[3,2-e]indazole]-6′(7′H)-carboxamide]			518	> 100	33.3
O=C(NCc1ccnc(Cl)c1)N1CC2(CCN(C/C=C/c3ccc(Cl)c(Cl)c3)CC2)c2c1ccc(Cl)c2Cl [Example 136, (E)-4,5-dichloro-N-((2-chloropyridin-4-yl)methyl)-1′-(3-(3,4-dichlorophenyl)allyl)spiro[indoline-3,4′-piperidine]-1-carboxamide]			160	3.3	100
O=C(NCc1ccnc(Cl)c1)N1CC2(CCN(C/C=C/c3ccc(Cl)c(Cl)c3)CC2)c2c1cccc2C(F)(F)F [Example 56, (E)-N-((2-chloropyridin-4-yl)methyl)-1′-(3-(3,4-dichlorophenyl)allyl)-4-(trifluoromethyl)spiro[indoline-3,4′-piperidine]-1-carboxamide]			432	4.5	9.1
